The target in one assay is T1, SP receptor (Rattus norvegicus, UniProt P14600).
T1 construct: from tissue; host or cells: rat submaxillary gland (crude tissue suspension)
Description: 3H-SP binding test, rat submaxillary gland tissue. The settings on record: for IC50: 3H-SP Binding IC50(μM), rat submaxillary gland tissue (Examples 1-34); for inhibition at 30 µM: read-out: 3H-SP Binding % Inhibition. On the procedure:
Crude rat submaxillary gland or brain tissue is suspended in buffer containing protease inhibitors (and calcium ions and magnesium ions in the case of brain tissue) and incubated under nitrogen atmosphere with ^3 H-SP and test compound. The bound SP is then separated from free SP by filtration and quantitated by liquid scintillation spectroscopy. This test meets the criteria of reversibility, saturability, sensitivity to known SP agonists and antagonists, and specificity for an SP receptor binding assay.
With regard to reversibility, addition of unlabelled SP causes a gradual decrease in bound ^3 H-SP, showing that SP is not irreversibly bound to the receptors in the tissue. With regard to saturability, the amount of bound ^3 H-SP in the preparation increases in direct proportion to the concentration of ^3 H-SP added until a saturation point is reached. […] With regard to sensitivity, known SP agonists and antagonists inhibit ^3 H-SP binding.
The results are expressed either as percent inhibition at a concentration of 30 micromoles per liter (μM) or as an IC50 calculated as the concentration in micromoles per liter.
The ^3 H-SP binding test results were obtained using rat submaxillary gland tissue for Examples 1-34 and rat brain tissue for Examples 35-42.

The test system of the next assay is rat vas deferens. Description: Rat vas deferens test (SP antagonist effect). It counts as cell-based. The settings on record: reversal of potentiation by 10 μM SP of electrically induced contractions. On the procedure:
Rat vasa deferentia are suspended in organ baths containing warmed, oxygenated Krebs solution and repetitively field-stimulated (0.1 Hz., 1 msec. duration, monophasic pulses) through platinum wire ring electrodes. Rapid, regular contractions of the muscle are recorded via transducers on a Grass polygraph. SP and related tachykinins added to the bath evoke a dose-dependent, stable potentiation of these electrically-induced contractions. For routine screening, a 10 μM concentration of SP is applied to all tissues to produce a 2-6 fold increase in electrically-stimulated twitch height. SP antagonist compounds (1-30 μM) produce an immediate, dose-related reversal of the response of the tissue to SP, which is quantified by determination of an IC50.

Assay [1] relates to longitudinal muscle of guinea pig terminal ileum. The experiment in a line: Guinea pig ileum test (SP agonist and antagonist effect). It counts as cell-based. The settings on record: for Guinea Pig Ileum pA2: antagonism of reference agonist, Schild plot analysis; for Guinea Pig Ileum % Agonism (potency relative to SP): contraction of ileum longitudinal muscle strips, relative molar potency vs SP. On the procedure:
Strips of longitudinal muscle derived from terminal ileum of adult male guinea pigs (Charles River, 400-600 g.) are mounted in 5-ml. organ baths containing oxygenated Krebs solution containing 1 μM each of atropine and pyrilamine maintained at 30-33 C. and connected to isometric transducers. Following tissue equilibration and repeated washing (45-60 min.), SP or an appropriate reference agonist is added cumulatively to the bath and contractions of the tissue are recorded. The bath is washed thoroughly and 30-45 min. is allowed to elapse before construction of a second reference agonist curve to assure reproducibility of the responses. Test compounds are similarly evaluated for agonist activity up to a maximum concentration of 10-100 μM. […] When appropriate, relative molar potency ratios are calculated (EC50 reference/ED50 test drug). […] The effects of several concentrations of test antagonist, pooled across separate experiments, provide dose-ratio (EC50 shift) data for a standard Schild plot analysis, with computation of the pA2.

“And” between values parts separate entries of the source, which are not always exact repeats. Equal entries are not always repeated. Non-standard residues stand in square brackets, D forms with d. Residues, ends and D or L forms follow the SMILES beside them.

In general, IC50 refers to the concentration that inhibits the measured activity by half. The term inhibition denotes the drop in the measured response relative to a control, in per cent.

T1 sequence (P14600 whole entry): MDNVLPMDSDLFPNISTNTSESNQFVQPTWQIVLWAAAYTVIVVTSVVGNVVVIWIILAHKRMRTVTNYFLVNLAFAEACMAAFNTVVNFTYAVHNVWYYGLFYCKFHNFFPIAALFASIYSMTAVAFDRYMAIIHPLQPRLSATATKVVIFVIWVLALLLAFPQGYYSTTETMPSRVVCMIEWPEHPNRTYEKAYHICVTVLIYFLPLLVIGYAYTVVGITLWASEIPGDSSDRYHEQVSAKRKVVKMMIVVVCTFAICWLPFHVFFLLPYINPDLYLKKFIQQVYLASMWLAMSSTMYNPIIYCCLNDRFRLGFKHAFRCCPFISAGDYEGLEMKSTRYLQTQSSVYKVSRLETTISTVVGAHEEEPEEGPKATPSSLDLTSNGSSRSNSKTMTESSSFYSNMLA

Take `CSCC[C@H](NC(=O)[C@H](CC(C)C)NC(=O)[C@@H](Cc1c[nH]c2ccccc12)NC(=O)[C@H](Cc1ccccc1)NC(=O)[C@@H](Cc1ccccc1)NC(=O)[C@@H]1CCCN1)C(N)=O` [Example 12, HPro-DPhe-Phe-DTrp-Leu-MetNH2] (H-P[dF]F[dW]LM-NH2): on SP receptor, the IC50 was 26.8 µM and the inhibition at 30 µM amounted to 69%. In the assay on rat vas deferens, the IC50 was determined as 13 µM. In assay [1], the “Guinea Pig Ileum pA2” value was 5.6 and the “Guinea Pig Ileum % Agonism (potency relative to SP)” value came to 0.0001%.

For the molecule `CSCC[C@H](NC(=O)[C@H](CC(C)C)NC(=O)[C@@H](Cc1c[nH]c2ccccc12)NC(=O)[C@H](Cc1ccccc1)NC(=O)[C@@H](Cc1c[nH]c2ccccc12)NC(=O)[C@@H]1CCCN1)C(N)=O` [Example 17, HPro-DTrp-Phe-DTrp-Leu-MetNH2] (H-P[dW]F[dW]LM-NH2), at SP receptor, the IC50 is 9.7 µM and 16.1 µM. In the assay with rat vas deferens, the IC50 came out at 4.1 µM. In addition, in assay [1], the “Guinea Pig Ileum pA2” value is given as 5.7 and the “Guinea Pig Ileum % Agonism (potency relative to SP)” value was less than 0.01%.

Turning to `CSCC[C@H](NC(=O)[C@H](CC(C)C)NC(=O)[C@@H](Cc1ccccc1)NC(=O)[C@H](Cc1ccccc1)NC(=O)[C@@H](Cc1ccccc1)NC(=O)[C@@H]1CCCN1)C(N)=O` [Example 23, HPro-DPhe-Phe-DPhe-Leu-MetNH2] (H-P[dF]F[dF]LM-NH2), on SP receptor, the inhibition at 30 µM was found to be 53%. Further, the IC50 in the assay on rat vas deferens amounted to 20 µM. In assay [1], the “Guinea Pig Ileum pA2” value stood at 5.4 and the “Guinea Pig Ileum % Agonism (potency relative to SP)” value is recorded as less than 0.001%.
